# Measurements reported in ChEMBL document CHEMBL1131844, “Substituted indoles as potent and orally active 5-lipoxygenase activating protein (FLAP) inhibitors” (Bioorg Med Chem Lett, 1999).
# Legend:
# [1] = Bioavailability in rat; format: ADME, organism-based; conditions: in vivo
# Rattus norvegicus [2] = experiment: Compound was evaluated in vivo for its functional activity(in percent) in a hyperreactive rat model of dyspnea; design: concentration or dose not given beside the values
# [3] = plasma level at 2 hr after administration of the compound; format: ADME, organism-based; conditions: rat
# Rattus norvegicus [4] = experiment: In vivo inhibitory activity against LTB4 biosynthesis by rat pleurisy model (3h pre treatment time periods); format: functional
# Homo sapiens [5] = species: Homo sapiens; experiment: In vitro inhibition of LTB4 biosynthesis in Ca++ ionophore activated human polymorphonuclear (HPMN) leukocytes.; format: functional
# [6] = target: T1, Arachidonate 5-lipoxygenase-activating protein (Homo sapiens, UniProt P20292); experiment: Measuring the affinity of leukotriene synthesis inhibitor for 5-Lipoxygenase activating protein (FLAP) by using [125I]L-691831 as radioligand.
# T1 sequence (P20292 whole entry): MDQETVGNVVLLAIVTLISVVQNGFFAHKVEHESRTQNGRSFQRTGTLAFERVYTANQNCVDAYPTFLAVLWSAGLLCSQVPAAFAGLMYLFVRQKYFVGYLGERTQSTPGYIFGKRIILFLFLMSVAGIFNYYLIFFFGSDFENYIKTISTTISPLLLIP
# Homo sapiens [7] = species: Homo sapiens; experiment: The drug dependent inhibition of LTB4 biosynthesis in human whole blood (HWB) activated with the ionophore A-23187; format: functional, organism-based
# [8] = target: T1, Arachidonate 5-lipoxygenase-activating protein; experiment: Measuring the affinity of leukotriene synthesis inhibitor for 5-lipoxygenase activating protein by using [125I]L-691831 as radioligand.
# Rattus norvegicus [9] = experiment: In vivo inhibitory activity against LTB4 biosynthesis by rat pleurisy model (v3h pre treatment time periods); format: functional
# Rattus norvegicus [10] = experiment: In vivo inhibitory activity against LTB4 biosynthesis by rat pleurisy model (3 pre treatment time periods); format: functional
# Rattus norvegicus [11] = experiment: In vivo inhibitory activity against LTB4 biosynthesis by rat pleurisy model (6h pre treatment time periods); format: functional
# Rattus norvegicus [12] = experiment: In vivo inhibitory activity against LTB4 biosynthesis by rat pleurisy model (1 pre treatment time periods); format: functional
# [13] = Plasma level at 2 hr after administration of the compound; format: ADME, organism-based; conditions: rat
# Canis familiaris [14] = experiment: Inhibition of ex vivo leukotriene B4 (LTB4) in whole blood of A-23,187-challenged dog after intravenous infusion of 2.5 ug/kg/min; format: functional; conditions: Canis lupus familiaris
# Rattus norvegicus [15] = experiment: In vivo inhibitory activity against LTB4 biosynthesis by rat pleurisy model (6 pre treatment time periods); format: functional
# Canis familiaris [16] = experiment: Inhibition of ex vivo urinary leukotriene E4 (LTE4) excretion from A-23,187-challenged dog after intravenous infusion of 2.5 ug/kg/min; format: functional; conditions: Canis lupus familiaris, Urine
# Rattus norvegicus [17] = experiment: In vivo inhibitory activity against LTB4 biosynthesis by rat pleurisy model (2h pre treatment time period); format: functional
Compound,IC50 (Homo sapiens [5]; Homo sapiens) [nM],"IC50 (Homo sapiens [7]; Homo sapiens, Blood) [nM]",IC50 [8] [nM],other results
C[C@@H](COc1ccc2c(c1)c(SC(C)(C)C)c(CC(C)(C)C(=O)O)n2Cc1ccc(Cl)cc1)c1ccccn1,2,280,,bioavailability [1]: 60%; Functional activity in dyspnea model (Rattus norvegicus [2]): 64%; concentration at 2 h [3]: 13 µM; ED50 (Rattus norvegicus [4]): 0.16 mg/kg; IC50 [6]: 6 nM
CC(C)(C)Sc1c(CC(C)(C)C(=O)O)n(Cc2ccc(Cl)cc2)c2ccc(OCc3nc4cc(C(F)(F)F)ccc4s3)cc12,22,> 3000,186,
CC(C)(C)Sc1c(CC(C)(C)C(=O)O)n(Cc2ccc(Cl)cc2)c2ccc(COCc3ccc4ccccc4n3)cc12,> 18,> 3000,26,
CC(C)(C)Sc1c(CC(C)(C)C(=O)O)n(Cc2ccc(Cl)cc2)c2ccc(OCc3cc4ccccc4cn3)cc12,3,> 3000,10,
CC(C)(C)Sc1c(CC(C)(C)C(=O)O)n(Cc2ccc(Cl)cc2)c2ccc(OCc3cnc4ccccc4c3)cc12,,,48,
CC(C)(C)Sc1c(CC(C)(C)C(=O)O)n(Cc2ccc(Cl)cc2)c2c(OCc3ccc4ccccc4n3)cccc12,,,1950,
COc1ccc2nc(COc3ccc4c(c3)c(SC(C)(C)C)c(CC(C)(C)C(=O)O)n4Cc3ccc(Cl)cc3)sc2c1,8,670,73,
C[C@H](COc1ccc2c(c1)c(SC(C)(C)C)c(CC(C)(C)C(=O)O)n2Cc1ccc(Cl)cc1)c1ccccn1,3,470,12,
CC(C)(C)Sc1c(CC(C)(C)C(=O)O)n(Cc2ccc(Cl)cc2)c2ccc(OCc3ccncc3)cc12,6,> 3000,48,
CC(C)(C)Sc1c(CC(C)(C)C(=O)O)n(Cc2ccc(Cl)cc2)c2ccc(OCc3cccnc3)cc12,8,> 3000,59,
CC(C)(C)Sc1c(CC(C)(C)C(=O)O)n(Cc2ccc(Cl)cc2)c2cc(OCc3ccc4ccccc4n3)ccc12,,,428,
CC(C)(C)Sc1c(CC(C)(C)C(=O)O)n(Cc2ccc(Cl)cc2)c2cccc(OCc3ccc4ccccc4n3)c12,,,85,
Cc1nc2ccc(COc3ccc4c(c3)c(SC(C)(C)C)c(CC(C)(C)C(=O)O)n4Cc3ccc(Cl)cc3)cc2s1,6,> 3000,40,
CC(C)(C)Sc1c(CC(C)(C)C(=O)O)n(Cc2ccc(Cl)cc2)c2ccc(OCc3ccc4cc(F)c(F)cc4n3)cc12,7,> 3000,14,
CC(C)(C)Sc1c(CC(C)(C)C(=O)O)n(Cc2ccc(Cl)cc2)c2ccc(/C=C/c3ccc4ccccc4n3)cc12,12,> 3000,11,
CC(C)(C)Sc1c(CC(C)(C)C(=O)O)n(Cc2ccc(Cl)cc2)c2ccc(OCc3ccnc4ccccc34)cc12,,,62,
CC(C)c1csc(COc2ccc3c(c2)c(SC(C)(C)C)c(CC(C)(C)C(=O)O)n3Cc2ccc(Cl)cc2)n1,3,> 3000,13,
CC(C)(C)Sc1c(CC(C)(C)C(=O)O)n(Cc2ccc(Cl)cc2)c2ccc(OCc3cccs3)cc12,4,> 3000,70,
CC(COc1ccc2c(c1)c(SC(C)(C)C)c(CC(C)(C)C(=O)O)n2Cc1ccc(Cl)cc1)c1ccccn1 (stereo unspecified),4,270,8,
CCCC(Oc1ccc2c(c1)c(SC(C)(C)C)c(CC(C)(C)C(=O)O)n2Cc1ccc(Cl)cc1)c1ccc2ccccc2n1 (stereo unspecified),> 52,> 3000,350,
CC(C)(C)Sc1c(CC(C)(C)C(=O)O)n(Cc2ccc(Cl)cc2)c2ccc(CCc3ccc4ccccc4n3)cc12,4,> 3000,16,
CC(Oc1ccc2c(c1)c(SC(C)(C)C)c(CC(C)(C)C(=O)O)n2Cc1ccc(Cl)cc1)c1ccc2ccccc2n1 (racemic),,,16,IC50 (Homo sapiens [5]): 9 nM; IC50 (Homo sapiens [7]): 803 nM
CC(Oc1ccc2c(c1)c(SC(C)(C)C)c(CC(C)(C)C(=O)O)n2Cc1ccc(Cl)cc1)c1ccc2ccccc2n1 (stereo in doubt; 6),,,116,IC50 (Homo sapiens [5]): 32 nM; IC50 (Homo sapiens [7]): > 3000 nM
CC(C)(C)Sc1c(CC(C)(C)C(=O)O)n(Cc2ccc(Cl)cc2)c2ccc(OCc3ccc4ccccc4n3)cc12 [QUIFLAPON],4,,,bioavailability [1]: 24%; concentration at 2 h [13]: 2.5 µM; Functional activity in dyspnea model (Rattus norvegicus [2]): 51%; inhibition in vivo at 2.5 µg/kg/min (Canis familiaris [14]): 94%; ED50 (Rattus norvegicus [15]): 0.15 mg/kg; inhibition in vivo at 2.5 µg/kg/min (Canis familiaris [16]): 71%; ED50 (Rattus norvegicus [17]): 0.51 mg/kg

# Now from value to compound, other results behind:
IC50 (Homo sapiens [5]; Homo sapiens) [nM],"IC50 (Homo sapiens [7]; Homo sapiens, Blood) [nM]",IC50 [8] [nM],Compound,other results
3,270,5,CC(C)(C)Sc1c(CC(C)(C)C(=O)O)n(Cc2ccc(Cl)cc2)c2ccc(OCc3cscn3)cc12,bioavailability [1]: 98%; Functional activity in dyspnea model (Rattus norvegicus [2]): 61%; concentration at 2 h [3]: 8 µM; ED50 (Rattus norvegicus [9]): 0.12 mg/kg
3,260,2,CC(C)(C)Sc1c(CC(C)(C)C(=O)O)n(Cc2ccc(Cl)cc2)c2ccc(OCc3nc4ccccc4s3)cc12,bioavailability [1]: 81%; Functional activity in dyspnea model (Rattus norvegicus [2]): 45%; concentration at 2 h [3]: 6 µM; ED50 (Rattus norvegicus [10]): 0.85 mg/kg
2,130,3,CC(C)(C)Sc1c(CC(C)(C)C(=O)O)n(Cc2ccc(Cl)cc2)c2ccc(OCc3ccccn3)cc12,bioavailability [1]: 48%; Functional activity in dyspnea model (Rattus norvegicus [2]): 77%; concentration at 2 h [3]: 9 µM; ED50 (Rattus norvegicus [4]): 0.3 mg/kg; ED50 (Rattus norvegicus [11]): 0.09 mg/kg
3,410,8,CC(C)(C)Sc1c(CC(C)(C)C(=O)O)n(Cc2ccc(Cl)cc2)c2ccc(OCc3cccc(Cl)n3)cc12,bioavailability [1]: 37%; Functional activity in dyspnea model (Rattus norvegicus [2]): 34%; concentration at 2 h [3]: 3.5 µM
3,980,2,CC(C)(C)Sc1c(CC(C)(C)C(=O)O)n(Cc2ccc(Cl)cc2)c2ccc(OCc3ccc4cnccc4n3)cc12,
2,880,2,CC(C)(C)Sc1c(CC(C)(C)C(=O)O)n(Cc2ccc(Cl)cc2)c2ccc(OCc3ccc4cc(F)ccc4n3)cc12,
3,2890,8,CC(C)(C)Sc1c(CC(C)(C)C(=O)O)n(Cc2ccc(Cl)cc2)c2ccc(OCc3ccc4c(n3)CCCC4)cc12,
< 7,2500,5,CC(C)(C)Sc1c(CC(C)(C)C(=O)O)n(Cc2ccc(Cl)cc2)c2ccc(OCc3nc4ccccc4o3)cc12,
4,400,7,CC(C)(C)Sc1c(CC(C)(C)C(=O)O)n(Cc2ccc(Cl)cc2)c2ccc(OCc3cnccn3)cc12,
6,> 3000,2,CC(C)(C)Sc1c(CC(C)(C)C(=O)O)n(Cc2ccc(Cl)cc2)c2ccc(OCc3ccc4cccnc4n3)cc12,
2,130,3,Cc1nc(COc2ccc3c(c2)c(SC(C)(C)C)c(CC(C)(C)C(=O)O)n3Cc2ccc(Cl)cc2)cs1,bioavailability [1]: 98%; Functional activity in dyspnea model (Rattus norvegicus [2]): 48%; concentration at 2 h [3]: 8 µM; ED50 (Rattus norvegicus [4]): 0.15 mg/kg
,,7,"CC(Oc1ccc2c(c1)c(SC(C)(C)C)c(CC(C)(C)C(=O)O)n2Cc1ccc(Cl)cc1)c1ccc2ccccc2n1 (single isomer, unassigned; (-))",bioavailability [1]: 48%; Functional activity in dyspnea model (Rattus norvegicus [2]): 45%; concentration at 2 h [3]: 4.2 µM; ED50 (Rattus norvegicus [12]): 1 mg/kg; IC50 (Homo sapiens [5]): 5 nM; IC50 (Homo sapiens [7]): 362 nM
